Data published in paper PMC3256935 (Journal of Medicinal Chemistry, 2011).

Molecular target: T1, TbNMT (Trypanosoma brucei brucei, UniProt Q388H8)
T1 sequence (Q388H8 1-446): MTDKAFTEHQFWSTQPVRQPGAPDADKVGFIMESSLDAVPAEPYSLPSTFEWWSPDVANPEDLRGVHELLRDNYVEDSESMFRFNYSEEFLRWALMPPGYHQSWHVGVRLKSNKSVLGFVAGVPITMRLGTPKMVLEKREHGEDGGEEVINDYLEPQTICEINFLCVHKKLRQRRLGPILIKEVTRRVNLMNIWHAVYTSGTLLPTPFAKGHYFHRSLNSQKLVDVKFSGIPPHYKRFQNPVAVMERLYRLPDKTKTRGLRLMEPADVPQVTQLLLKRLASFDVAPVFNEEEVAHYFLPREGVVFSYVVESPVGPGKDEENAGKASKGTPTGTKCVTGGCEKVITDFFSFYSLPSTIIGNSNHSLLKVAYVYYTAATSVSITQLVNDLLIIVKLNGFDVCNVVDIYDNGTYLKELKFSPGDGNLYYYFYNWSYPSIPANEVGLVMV
Assay: biochemical

IC50: > 100 µM
SMILES: Cc1nn(C)c(C)c1NCc1ccc(Br)cc1 [Compound 21]
